Experimental data as given in patent publication US10219516B2, “Molecules having pesticidal utility, and intermediates, compositions, and processes, related thereto” (priority 2015, dated 2019).
Like-named read-outs stand apart in the source and are kept apart here.

Columns and labels:
[1] = test system: Beet Armyworm (Spodoptera exigua, LAPHEG); experiment: Bioassay on Beet Armyworm (BAW), 128-well diet tray assay; assay type: in vivo
Method in brief: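 Diet tray, 8 wells/compound; 50 μg/cm^2 applied to diet surface (90:10 acetone-water), dried. 1–5 L2 larvae/well; 25° C., 14:10 L:D, 5–7 d. Read-out: % mortality, mean of 8 wells.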

[2] = test system: Cabbage Looper (Trichoplusia ni, TRIPNI); experiment: Bioassay on Cabbage Looper (CL), 128-well diet tray assay; assay type: in vivo; settings: Trichoplusia ni
Method in brief: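 Second-instar larvae, one to five per well, were placed on artificial diet surface-treated with 50 μg/cm^2 test molecule applied in 90:10 acetone-water and dried, eight wells per molecule. Trays were covered, vented and held at 25° C., 14:10 light-dark for five to seven days; percent mortality per well was averaged.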

[3] = Species BAW (Beet Armyworm), read-out: BAW (Biological Results, rating)
[4] = Species CL (Cabbage Looper), read-out: CL (Biological Results, rating)
[5] = Beet Armyworm, 128-well diet tray assay, read-out: BAW rating
[6] = Cabbage Looper, 128-well diet tray assay, read-out: CL rating

SMILES	pest or weed control at 50 µg/cm2 [1, 3]	pest or weed control at 50 µg/cm2 [2, 4]	pest or weed control at 50 µg/cm2 [1, 5]	pest or weed control at 50 µg/cm2 [2, 6]
CN(C(=O)[C@H]1[C@H](c2cc(Cl)cc(Cl)c2)C1(Cl)Cl)c1ccc(Cl)c(C(=O)Nc2ccc(F)cc2)c1 (relative stereo) [F183, trans-2-Chloro-5-(2,2-dichloro-3-(3,5-dichlorophenyl)-N-methylcyclopropane-1-carboxamido)-N-(4-fluorophenyl)benzamide]	50 to 100%	50 to 100%		
CC(=O)Nc1ccc(NC(=O)c2cc(NC(=O)[C@H]3[C@H](c4ccc(Cl)c(Cl)c4)C3(Cl)Cl)ccc2Cl)c(F)c1 (relative stereo) [PF41, trans-N-(4-Acetamido-2-fluorophenyl)-2-chloro-5-(2,2-dichloro-3-(3,4-dichlorophenyl)cyclopropane-1-carboxamido)benzamide]			50 to 100%	50 to 100%
O=C(Nc1nc2ccc(F)cc2[nH]1)c1cc(NC(=O)C2C(c3cc(Cl)cc(Cl)c3)C2(Cl)Cl)ccc1Cl (stereo not drawn) [F451, 2-Chloro-5-(trans)-2,2-dichloro-3-(3,5-dichlorophenyl)cyclopropane-1-carboxamido)-N-(6-fluoro-1H-benzo[d]imidazol-2-yl)benzamide]			50 to 100%	50 to 100%
N#Cc1ccc(NC(=O)c2cc(NC(=O)[C@H]3[C@H](c4ccc(Cl)c(Cl)c4)C3(Cl)Cl)ccc2Cl)c(F)c1 (relative stereo) [F103, trans-2-chloro-N-(4-cyano-2-fluorophenyl)-5-(2,2-dichloro-3-(3,4-dichlorophenyl)cyclopropane-1-carboxamido)benzamide]	50 to 100%	50 to 100%		
CS(=O)(=O)c1ccc(NC(=O)[C@H]2[C@H](c3cc(Cl)cc(Cl)c3)C2(Cl)Cl)cc1C(=O)Nc1ccc(F)cc1 (relative stereo) [F157, trans-5-(2,2-dichloro-3-(3,5-dichlorophenyl)cyclopropane-1-carboxamido)-N-(4-fluorophenyl)-2-(methylsulfonyl)benzamide]	50 to 100%	50 to 100%		
Nc1ccc([C@H]2[C@H](C(=O)Nc3ccc(Cl)c(C(=O)Nc4ccc(F)cc4)c3)C2(Cl)Cl)cc1 (relative stereo) [F425, 5-(trans-3-(4-aminophenyl)-2,2-dichlorocyclopropane-1-carboxamido)-2-chloro-N-(4-fluorophenyl)benzamide]			50 to 100%	50 to 100%
O=C(Nc1ccc(F)cc1)c1cc(NC(=O)C2C(c3cc(Cl)cc(Cl)c3)C2(Cl)Br)ccc1Cl (stereo not drawn) [PF33, 5-(trans)-2-Bromo-2-chloro-3-(3,5-dichlorophenyl)cyclopropane-1-carboxamido)-2-chloro-N-(4-fluorophenyl)benzamide]			50 to 100%	50 to 100%
O=C(Nc1ccccc1F)c1cc(NC(=O)[C@H]2[C@H](c3cc(Cl)cc(Cl)c3)C2(Cl)Cl)ccc1Cl (relative stereo) [F17, trans-2-Chloro-5-(2,2-dichloro-3-(3,5-dichlorophenyl)cyclopropane-1-carboxamido)-N-(2-fluorophenyl)benzamide]	50 to 100%	50 to 100%		
O=C(Nc1ccc(F)cc1)c1cc(NC(=O)C2C(c3cc(Cl)cc(Cl)c3)C2(Cl)Cl)ccc1Cl (stereo not drawn) [F629, 2-Chloro-5-(2,2-dichloro-3-cis-(3,5-dichlorophenyl)cyclopropane-1-carboxamido)-N-(4-fluorophenyl)benzamide]			50 to 100%	50 to 100%
Cc1cc(N(C)C(=O)OC(C)(C)C)ccc1N(C)C(=O)c1cc(NC(=O)[C@H]2[C@H](c3cc(Cl)cc(Cl)c3)C2(Cl)Cl)ccc1Cl (relative stereo) [F220, trans-tert-Butyl-(4-(2-chloro-5-(2,2-dichloro-3-(3,5-dichlorophenyl)cyclopropane-1-carboxamido)-N-methylbenzamido)-3-methylphenyl)(methyl)carbamate]	50 to 100%	50 to 100%		
N#Cc1ccc(NC(=O)c2cc(NC(=O)[C@H]3[C@H](c4cc(Cl)cc(Cl)c4)C3(Cl)Cl)ccc2Cl)nc1N (relative stereo) [F292, N-(6-Amino-5-cyanopyridin-2-yl)-2-chloro-5-(trans-2,2-dichloro-3-(3,5-dichlorophenyl)cyclopropane-1-carboxamido)benzamide]	50 to 100%	50 to 100%		
CC(C)(C)CC(=O)Nc1ccc(NC(=O)c2cc(NC(=O)[C@H]3[C@H](c4cc(Cl)cc(Cl)c4)C3(Cl)Cl)ccc2Cl)cc1 (relative stereo) [PF164, trans-2-Chloro-5-(2,2-dichloro-3-(3,5-dichlorophenyl)cyclopropane-1-carboxamido)-N-(4-(3,3-dimethylbutanamido)phenyl)benzamide]			50 to 100%	50 to 100%
O=C(Nc1nc(C(F)(F)F)cs1)c1cc(NC(=O)[C@H]2[C@H](c3cc(Cl)cc(Cl)c3)C2(Cl)Cl)ccc1Cl (relative stereo) [PF134, trans-2-Chloro-5-(2,2-dichloro-3-(3,5-dichlorophenyl)cyclopropane-1-carboxamido)-N-(4-(trifluoromethyl)thiazol-2-yl)benzamide]			50 to 100%	50 to 100%
Cc1ccc(C(=O)Nc2ccc(F)cc2)cc1NC(=O)[C@H]1[C@H](c2cc(Cl)cc(Cl)c2)C1(Cl)Cl (relative stereo) [F134, trans-3-(2,2-Dichloro-3-(3,5-dichlorophenyl)cyclopropane-1-carboxamido)-N-(4-fluorophenyl)-4-methylbenzamide]	50 to 100%	50 to 100%		
CC(C)(C)OC(=O)N(C(=O)OC(C)(C)C)c1cc(NC(=O)c2cc(NC(=O)[C@H]3[C@H](c4cc(Cl)cc(Cl)c4)C3(Cl)Cl)ccc2Cl)c(F)cc1F [F519, tert-Butyl-N-((tert-butoxy)carbonyl)-N-(5-(2-chloro-5-((1R,3R)-2,2-dichloro-3-(3,5-dichlorophenyl)cyclopropane-1-carboxamido)benzamido)-2,4-difluorophenyl)carbamate]			50 to 100%	50 to 100%
O=C(Nc1ccc(F)cc1F)c1cc(NC(=O)[C@H]2[C@H](c3cc(Cl)cc(Br)c3)C2(Cl)Cl)ccc1Cl (relative stereo) [PF39, 5-(trans-3-(3-Bromo-5-chlorophenyl)-2,2-dichlorocyclopropane-1-carboxamido)-2-chloro-N-(2,4-difluorophenyl)benzamide]			50 to 100%	50 to 100%
O=C(Cc1ccccc1)Nc1ccc(NC(=O)c2cc(NC(=O)[C@H]3[C@H](c4cc(Cl)cc(Cl)c4)C3(Cl)Cl)ccc2Cl)cc1 (relative stereo) [PF28, trans-2-Chloro-5-(2,2-dichloro-3-(3,5-dichlorophenyl)cyclopropane-1-carboxamido)-N-(4-(2-phenylacetamido)phenyl)benzamide]			50 to 100%	50 to 100%
Cc1cc(C(F)(C(F)(F)F)C(F)(F)F)cc(C)c1NC(=O)c1cc(NC(=O)[C@H]2[C@H](c3cc(Cl)cc(Cl)c3)C2(Cl)Cl)ccc1Cl (relative stereo) [PF60, trans-2-Chloro-5-(2,2-dichloro-3-(3,5-dichlorophenyl)cyclopropane-1-carboxamido)-N-(2,6-dimethyl-4-(perfluoropropan-2-yl)phenyl)benzamide]			50 to 100%	50 to 100%
Nc1c(F)ccc(NC(=O)c2cc(NC(=O)C3C(c4cc(Cl)c(Cl)c(Br)c4)C3(Cl)Cl)ccc2Cl)c1F (stereo not drawn) [F621, N-(3-Amino-2,4-difluorophenyl)-5-(3-trans-(3-bromo-4,5-dichlorophenyl)-2,2-dichlorocyclopropane-1-carboxamido)-2-chlorobenzamide]			50 to 100%	50 to 100%
N#Cc1ccc(NC(=O)c2cc(NC(=O)[C@H]3[C@H](c4ccc(Cl)c(Cl)c4)C3(Cl)Cl)ccc2F)c(F)c1 (relative stereo) [F94, trans-N-(4-Cyano-2-fluorophenyl)-5-(2,2-dichloro-3-(3,4-dichlorophenyl)cyclopropane-1-carboxamido)-2-fluorobenzamide]	50 to 100%	50 to 100%		
COc1ccc([C@H]2[C@H](C(=O)Nc3ccc(Cl)c(C(=O)Nc4ccc(F)cc4)c3)C2(Cl)Cl)cc1 (relative stereo) [PF65, trans-2-Chloro-5-(2,2-dichloro-3-(4-methoxyphenyl)cyclopropane-1-carboxamido)-N-(4-fluorophenyl)benzamide]			50 to 100%	50 to 100%
CS(=O)(=O)c1ccc(NC(=O)c2cc(NC(=O)[C@H]3[C@H](c4cc(Cl)cc(Cl)c4)C3(Cl)Cl)ccc2Cl)cc1 (relative stereo) [F143, trans-2-Chloro-5-(2,2-dichloro-3-(3,5-dichlorophenyl)cyclopropane-1-carboxamido)-N-(4-(methylsulfonyl)phenyl)benzamide]	50 to 100%	50 to 100%		
C=CCN(C(=O)c1cc(NC(=O)[C@H]2[C@H](c3cc(Cl)cc(Cl)c3)C2(Cl)Cl)ccc1Cl)c1ccc(F)cc1 (relative stereo) [F102, trans-N-Allyl-2-chloro-5-(2,2-dichloro-3-(3,5-dichlorophenyl)cyclopropane-1-carboxamido)-N-(4-fluorophenyl)benzamide]	50 to 100%	50 to 100%		
